Data as given in patent US7820707B2, “Heterocyclic derivatives” (N.V. Organon, priority 2006, dated 2010).
pEC50: −log10 of the molar value.

Target: T1, AMPA (GluR1) receptor (Homo sapiens, UniProt P42261)
T1 construct: expressed in transfected cells; host or cells: HEK cells (HEK.GluR1(i), kept under hygromycin selection)
Assay: Ca2+ influx assay (FLEXstation, Fluo-3) for positive modulation of the AMPA (GluR1) receptor in HEK.GluR1(i) cells
Assay type: cell-based
Conditions: glutamate +/- test compound, Ca2+ response with fluo3-AM
Text: The compounds in this invention may be tested using a biological assay which measures Ca^2+ influx mediated through positive modulation of the AMPA (GluR1) receptor using standard techniques in the art such as, but not limited to, a FLEXstation (manufactured by Molecular Devices, Sunnyvale, Calif.). An optical readout using fluorescent probes is employed to measure ion channel dependent changes in intracellular ion concentration or membrane potential. The assay utilises the Ca^2+ conductance of functional homomeric GluR1(i) AMPA receptors to generate glutamate-dependent Ca^2+ responses. Influx of Ca^2+ through the ion channel is measured indirectly through an increase in intracellular Ca^2+ levels using the calcium sensitive dye such as, but not limited to, Fluo-3 (Molecular Devices, Sunnyvale, Calif.) in FLEXstation. A positive AMPA receptor modulator, in the presence of glutamate, will result in an influx of Ca^2+ through the ion channel which can be measured indirectly through an increase in intracellular Ca^2+ levels using the calcium sensitive dye Fluo-3 in FLEXstation.
HEK.GluR1(i) cells were maintained in DMEM supplemented with 10% fetaclone II, 1% non-essential amino acids and 150 μg/mL hygromycin, at 37° C./5% CO2. […]

T1 sequence (P42261 19-906 isoform P42261-2 limits assumed, species assumed): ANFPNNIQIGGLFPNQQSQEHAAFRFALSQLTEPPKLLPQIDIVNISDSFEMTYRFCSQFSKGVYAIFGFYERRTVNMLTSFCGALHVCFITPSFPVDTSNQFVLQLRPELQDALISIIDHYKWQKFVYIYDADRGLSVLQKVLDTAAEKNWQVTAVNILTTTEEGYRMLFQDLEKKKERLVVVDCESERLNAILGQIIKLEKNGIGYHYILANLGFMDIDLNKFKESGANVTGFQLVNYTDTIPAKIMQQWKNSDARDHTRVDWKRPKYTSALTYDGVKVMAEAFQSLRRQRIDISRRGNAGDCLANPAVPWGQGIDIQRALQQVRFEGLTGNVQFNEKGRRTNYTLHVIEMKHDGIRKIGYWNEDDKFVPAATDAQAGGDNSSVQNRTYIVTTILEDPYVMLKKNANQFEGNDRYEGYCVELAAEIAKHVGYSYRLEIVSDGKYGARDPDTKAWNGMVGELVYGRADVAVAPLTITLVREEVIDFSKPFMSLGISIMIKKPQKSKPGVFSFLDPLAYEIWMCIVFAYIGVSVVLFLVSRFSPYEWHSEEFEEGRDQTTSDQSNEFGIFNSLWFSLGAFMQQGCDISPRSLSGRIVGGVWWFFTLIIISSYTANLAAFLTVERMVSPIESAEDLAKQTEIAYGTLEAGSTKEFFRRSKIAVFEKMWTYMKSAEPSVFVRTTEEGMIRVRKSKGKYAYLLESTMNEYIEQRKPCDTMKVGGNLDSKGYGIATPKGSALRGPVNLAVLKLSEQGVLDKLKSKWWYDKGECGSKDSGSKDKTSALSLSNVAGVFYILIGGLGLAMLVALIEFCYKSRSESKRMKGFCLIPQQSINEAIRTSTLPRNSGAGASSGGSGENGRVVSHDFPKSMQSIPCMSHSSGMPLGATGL

CC(O)c1cn(CC(=O)Nc2sc3c(c2C(N)=O)CCCC3)nc1C(F)(F)F (stereo not shown) [Example 67, 2-(2-(4-(1-hydroxyethyl)-3-(trifluoromethyl)-1H-pyrazol-1-yl)acetamido)-4,5,6,7-tetrahydrobenzo[b]thiophene-3-carboxamide]
pEC50: 5.66
